# Experimental data from the supplement of paper PMC10307832.
# Tests used:
# Assay in all cases: relative viability (nuclei count vs DMSO), 5 days (fraction); higher = more cells survive
# [1] = compound: CCOc1cc2ncc(C#N)c(Nc3ccc(OCc4ccccn4)c(Cl)c3)c2cc1NC(=O)/C=C/CN(C)C [Neratinib] + CS(=O)(=O)CCNCc1ccc(-c2ccc3ncnc(Nc4ccc(OCc5cccc(F)c5)c(Cl)c4)c3c2)o1 [Lapatinib] (partner 2 µM)
# Method in brief: (§1)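 One day after seeding in 1536-well plates, lung cancer cell lines were dosed by pin tool. Dosing was either single-drug or a fixed anchor-drug dose plus five library-drug doses (not always all listed) in √10 steps. After 5 days, nuclei were stained in one fix-and-stain step and counted on 4× images, and relative viability is the nuclei count of treated wells over that of vehicle wells, given as the median of duplicate plates.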
# [2] = compound: CCOc1cc2ncc(C#N)c(Nc3ccc(OCc4ccccn4)c(Cl)c3)c2cc1NC(=O)/C=C/CN(C)C [Neratinib] + C[C@@H](Oc1cc(-c2cnn(C3CCNCC3)c2)cnc1N)c1c(Cl)ccc(F)c1Cl [Crizotinib] (partner 1 µM)
# Method in brief: as §1
# [3] = compound: CCOc1cc2ncc(C#N)c(Nc3ccc(OCc4ccccn4)c(Cl)c3)c2cc1NC(=O)/C=C/CN(C)C [Neratinib] + Cc1nc(Nc2ncc(C(=O)Nc3c(C)cccc3Cl)s2)cc(N2CCN(CCO)CC2)n1 [Dasatinib] (partner 0.075 µM)
# Method in brief: as §1
# [4] = compound: CCOc1cc2ncc(C#N)c(Nc3ccc(OCc4ccccn4)c(Cl)c3)c2cc1NC(=O)/C=C/CN(C)C [Neratinib] + Nc1nc2[nH]cc(CCc3ccc(C(=O)N[C@@H](CCC(=O)O)C(=O)O)cc3)c2c(=O)[nH]1 [Pemetrexed] (partner 0.2 µM)
# Method in brief: as §1
Cell Line,relative viability ([1]; first compound 0.01 µM),relative viability ([1]; first compound 0.03162 µM),relative viability ([1]; first compound 0.1 µM),relative viability ([1]; first compound 0.3162 µM),relative viability ([1]; first compound 1 µM),relative viability ([2]; first compound 0.01 µM),relative viability ([2]; first compound 0.03162 µM),relative viability ([2]; first compound 0.1 µM),relative viability ([2]; first compound 0.3162 µM),relative viability ([2]; first compound 1 µM),relative viability ([3]; first compound 0.01 µM),relative viability ([3]; first compound 0.03162 µM),relative viability ([3]; first compound 0.1 µM),relative viability ([3]; first compound 0.3162 µM),relative viability ([3]; first compound 1 µM),relative viability ([4]; first compound 0.01 µM),relative viability ([4]; first compound 0.03162 µM),relative viability ([4]; first compound 0.1 µM),relative viability ([4]; first compound 0.3162 µM),relative viability ([4]; first compound 1 µM)
HCC-827,0.223,0.229,0.17,0.174,0.165,0.986,0.996,0.778,0.7,0.176,0.421,0.39,0.366,0.248,0.169,0.273,0.271,0.191,0.153,0.13
NCI-H23,1.05,0.932,1.09,1.02,0.762,0.697,0.572,0.413,0.486,0.27,0.695,0.876,0.779,0.825,0.537,0.702,0.641,0.619,0.664,0.499
NCI-H2170,0.284,0.278,0.289,0.301,0.255,1.14,0.77,0.617,0.302,0.223,0.527,0.563,0.283,0.176,0.196,0.275,0.261,0.237,0.203,0.196
EMC-BAC-2,1.03,0.965,0.826,0.856,0.864,0.828,0.817,0.635,0.709,0.407,0.368,0.342,0.302,0.33,0.248,0.473,0.495,0.435,0.451,0.475
NCI-H2347,0.812,1.04,0.94,0.952,0.83,0.693,0.743,0.629,0.675,0.464,0.282,0.35,,0.375,0.2,0.423,0.479,0.396,0.495,0.449
UMC-11,1.03,1.11,0.604,0.841,0.745,0.651,0.684,0.52,0.537,0.528,0.482,0.505,0.399,0.384,0.425,0.786,0.785,0.525,0.683,0.51
NCI-H358,0.502,0.47,0.42,0.405,0.237,0.65,0.409,0.391,0.161,0.182,0.131,0.131,0.104,0.146,0.126,0.172,0.161,0.168,0.133,0.153
LC-2-ad,0.993,0.974,0.783,1.06,0.978,0.456,0.457,0.41,0.386,0.294,0.569,0.697,0.545,0.304,0.342,0.25,0.258,0.274,0.282,0.24
HCC-15,0.947,1.01,0.715,0.756,0.725,0.843,0.906,0.829,0.707,0.648,0.655,0.676,0.555,0.644,0.517,0.205,0.222,0.233,0.227,0.205
NCI-H3122,1.05,1.05,0.884,1.03,0.601,0.291,0.284,0.222,0.188,0.198,0.872,0.939,0.729,0.565,0.132,0.197,0.214,0.179,0.551,0.187
LXF-289,,0.964,0.809,0.924,0.937,0.879,0.871,0.75,0.821,0.752,0.186,0.234,0.162,0.21,0.188,0.881,0.981,0.834,0.933,0.87
CAL-12T,0.725,0.702,0.529,0.635,0.295,0.84,0.945,0.408,0.256,0.206,0.325,0.475,0.212,0.13,0.122,1.38,1.17,0.946,0.798,0.329
COR-L23,1.07,1.14,0.781,0.882,0.598,0.853,0.678,0.589,0.564,0.503,0.558,0.602,0.489,0.439,0.308,0.206,0.199,0.211,0.187,0.191
NCI-H1755,1.03,1.07,0.969,1.12,1.09,0.873,0.919,0.752,0.912,0.476,0.478,0.466,0.379,0.436,0.319,0.496,0.496,0.379,0.563,0.417
NCI-H1437,0.911,0.881,0.771,0.721,0.703,1.04,0.853,0.897,0.789,0.822,0.443,0.396,0.475,0.278,0.3,0.329,0.344,0.269,0.275,0.312
NCI-H2087,1.02,0.995,,0.989,0.894,1.02,1.03,,0.978,0.667,0.936,0.888,0.605,0.584,0.373,0.634,0.74,0.655,0.694,0.548
H3255,0.257,0.333,0.273,0.229,0.176,0.836,0.838,0.671,0.243,0.164,0.38,0.392,0.283,0.195,,0.556,0.568,0.469,0.332,0.226
NCI-H838,1.11,1.2,0.949,0.947,0.468,0.995,0.812,0.833,0.67,0.476,0.272,0.255,0.278,0.287,0.267,0.247,0.268,0.242,0.239,0.243
LOU-NH91,0.809,0.776,0.733,0.743,0.567,0.735,0.669,0.588,0.501,0.479,0.579,0.504,0.448,0.413,0.377,0.383,0.439,0.426,0.43,0.424
NCI-H1650,,0.66,0.736,0.84,0.742,0.922,1.03,0.705,0.568,0.623,0.309,0.31,0.307,0.304,0.376,0.381,0.348,0.31,0.314,0.325
NCI-H322M,0.587,0.569,0.522,0.567,0.449,,1.02,0.791,0.659,0.291,0.24,0.237,0.237,0.228,0.293,0.642,0.652,0.598,0.448,0.371
SW 1573,1.27,1.13,1.24,1.15,1.16,0.91,0.929,0.892,0.628,0.546,0.455,0.519,0.455,0.495,0.322,,0.878,0.651,0.799,0.475
NCI-H1651,0.881,1.01,0.77,,0.68,0.927,0.944,0.86,0.846,0.564,0.424,0.505,0.371,0.452,0.32,0.619,0.629,0.565,0.57,0.516
NCI-H2126,0.79,,0.735,0.754,0.672,1.05,1.03,1.03,1.06,0.51,0.589,0.602,0.523,0.426,0.338,0.659,0.638,0.623,0.616,0.404
